ChEMBL document CHEMBL1201862, “PubChem BioAssay data set” (2004)
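1) Cells in 96-well plates. 2) Compound, 48 h, 5 concentrations. 3) Linear interpolation between surrounding doses. 4) Unreached endpoint = highest concentration. Here, GI50 denotes the concentration required for 50% inhibition of growth.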 Calls of active or inactive are those of the source. Cut-off read from the data, not from the text of the source: active = GI50 up to about 1.1 µM and inactive = higher.

Experiments:
Assay in all cases: inhibition of tumour cell growth, NCI panel, 48 h
CCRF-CEM = tested on: CCRF-CEM
SK-MEL-5 = tested on: SK-MEL-5
HCT-116 = tested on: HCT-116
LXFL 529 = tested on: LXFL 529
OVCAR-3 = tested on: OVCAR-3
UACC-257 = tested on: UACC-257
SNB-75 = tested on: SNB-75
RXF 393 = tested on: RXF 393
OVCAR-5 = tested on: OVCAR-5
HT-29 = tested on: HT-29
M19-MEL = tested on: M19-MEL
TK-10 = tested on: TK-10
HOP-62 = tested on: HOP-62
NCI-H522 = tested on: NCI-H522
RPMI-8226 = tested on: RPMI-8226
ACHN = tested on: ACHN
HCC 2998 = tested on: HCC 2998
SK-MEL-2 = tested on: SK-MEL-2
SW-620 = tested on: SW-620
A549 = tested on: A549
NCI-H226 = tested on: NCI-H226
U-251 = tested on: U-251
OVCAR-4 = tested on: OVCAR-4
SNB-19 = tested on: SNB-19
786-0 = tested on: 786-0
DMS-114 = tested on: DMS-114
HOP-18 = tested on: HOP-18
CAKI-1 = tested on: CAKI-1
UO-31 = tested on: UO-31
DMS-273 = tested on: DMS-273
UACC-62 = tested on: UACC-62
KM-20L2 = tested on: KM-20L2
SR = tested on: SR
SF-295 = tested on: SF-295
SNB-78 = tested on: SNB-78
EKVX = tested on: EKVX
K562 = tested on: K562
SF-268 = tested on: SF-268
HL-60 = tested on: HL-60
NCI-H460 = tested on: NCI-H460
NCI-H23 = tested on: NCI-H23
LOX IMVI = tested on: LOX IMVI
KM12 = tested on: KM12
HOP-92 = tested on: HOP-92
COLO 205 = tested on: COLO 205
SK-MEL-28 = tested on: SK-MEL-28
IGROV-1 = tested on: IGROV-1
SN12C = tested on: SN12C
SF-539 = tested on: SF-539
Malme-3M = tested on: Malme-3M
XF498 = tested on: XF498
OVCAR-8 = tested on: OVCAR-8
HCT-15 = tested on: HCT-15
MOLT-4 = tested on: MOLT-4
SK-OV-3 = tested on: SK-OV-3
A498 = tested on: A498
DLD-1 = tested on: DLD-1
M14 = tested on: M14
RXF 631 = tested on: RXF 631

For `CCOC(=O)NC1CC2CCC1(OC)C=C2C` (stereo not given), the GI50 (CCRF-CEM) was > 100 µM (inactive), the GI50 (SK-MEL-5) was > 100 µM (inactive) and the GI50 (HCT-116) was > 100 µM (inactive). The GI50 (LXFL 529) was > 100 µM (inactive), the GI50 (OVCAR-3) was > 100 µM (inactive) and the GI50 (UACC-257) was > 100 µM (inactive). For the same compound, the GI50 (SNB-75) was > 100 µM (inactive), the GI50 (RXF 393) was > 100 µM (inactive) and the GI50 (OVCAR-5) was > 100 µM (inactive). The GI50 (HT-29) was > 100 µM (inactive), the GI50 (M19-MEL) was > 100 µM (inactive) and the GI50 (TK-10) was > 100 µM (inactive). For the same compound, the GI50 (HOP-62) was > 100 µM (inactive), the GI50 (NCI-H522) was > 100 µM (inactive) and the GI50 (RPMI-8226) was > 100 µM (inactive). For the same compound, the GI50 (ACHN) was > 100 µM (inactive), the GI50 (HCC 2998) was > 100 µM (inactive) and the GI50 (SK-MEL-2) was > 100 µM (inactive). The GI50 (SW-620) was > 90.6 µM (inactive), the GI50 (A549) was > 100 µM (inactive) and the GI50 (NCI-H226) was > 100 µM (inactive). The GI50 (U-251) was > 100 µM (inactive), the GI50 (OVCAR-4) was > 100 µM (inactive) and the GI50 (SNB-19) was > 100 µM (inactive). The GI50 (786-0) was > 100 µM (inactive), the GI50 (DMS-114) was > 100 µM (inactive) and the GI50 (HOP-18) was > 100 µM (inactive). The GI50 (CAKI-1) was > 53.5 µM (inactive), the GI50 (UO-31) was > 100 µM (inactive) and the GI50 (DMS-273) was > 100 µM (inactive). The GI50 (UACC-62) was > 100 µM (inactive), the GI50 (KM-20L2) was > 100 µM (inactive) and the GI50 (SR) was > 100 µM (inactive). For the same compound, the GI50 (SF-295) was > 100 µM (inactive), the GI50 (SNB-78) was > 100 µM (inactive) and the GI50 (EKVX) was > 100 µM (inactive). The GI50 (K562) was > 100 µM (inactive), the GI50 (SF-268) was > 100 µM (inactive) and the GI50 (HL-60) was > 100 µM (inactive). The GI50 (NCI-H460) was > 100 µM (inactive), the GI50 (NCI-H23) was > 100 µM (inactive) and the GI50 (LOX IMVI) was > 100 µM (inactive). For the same compound, the GI50 (KM12) was > 100 µM (inactive), the GI50 (HOP-92) was > 100 µM (inactive) and the GI50 (COLO 205) was > 100 µM (inactive). For the same compound, the GI50 (SK-MEL-28) was > 100 µM (inactive), the GI50 (IGROV-1) was > 100 µM (inactive) and the GI50 (SN12C) was > 100 µM (inactive). For the same compound, the GI50 (SF-539) was > 100 µM (inactive), the GI50 (Malme-3M) was > 100 µM (inactive) and the GI50 (XF498) was > 100 µM (inactive). For the same compound, the GI50 (OVCAR-8) was > 100 µM (inactive), the GI50 (HCT-15) was over 100 µM and the GI50 (MOLT-4) was > 100 µM (inactive). The GI50 (SK-OV-3) was > 100 µM (inactive), the GI50 (A498) was > 100 µM (inactive) and the GI50 (DLD-1) was > 100 µM (inactive). The GI50 (M14) was > 100 µM (inactive).
In the case of `CC1=C2O[B-](c3ccccc3)(c3ccccc3)[O+]=C2C=CN1`, the GI50 (CCRF-CEM) is reported as 34.8 µM (inactive), the GI50 (SK-MEL-5) is reported as 21.5 µM (inactive) and the GI50 (HCT-116) is reported as 42.6 µM (inactive). For the same compound, the GI50 (OVCAR-3) was 2 µM (inactive), the GI50 (UACC-257) was 27.7 µM (inactive) and the GI50 (SNB-75) was 22.8 µM (inactive). The GI50 (RXF 393) was 26.4 µM (inactive), the GI50 (HT-29) was 54.7 µM (inactive) and the GI50 (M19-MEL) was 62.4 µM (inactive). For the same compound, the GI50 (TK-10) was 22.6 µM (inactive), the GI50 (RXF 631) was 44.9 µM (inactive) and the GI50 (HOP-62) was 25.9 µM (inactive). The GI50 (RPMI-8226) was 28.3 µM (inactive), the GI50 (ACHN) was 27.9 µM (inactive) and the GI50 (SW-620) was 44.9 µM (inactive). For the same compound, the GI50 (A549) was 58.3 µM (inactive), the GI50 (U-251) was 55.6 µM (inactive) and the GI50 (OVCAR-4) was 64.7 µM (inactive). The GI50 (SNB-19) was 37.3 µM (inactive), the GI50 (786-0) was 46.2 µM (inactive) and the GI50 (DMS-114) was 38.7 µM (inactive). The GI50 (CAKI-1) was 21.8 µM (inactive), the GI50 (UO-31) was 4.46 µM (inactive) and the GI50 (DMS-273) was 45.9 µM (inactive). For the same compound, the GI50 (UACC-62) was 21.2 µM (inactive), the GI50 (KM-20L2) was 62.1 µM (inactive) and the GI50 (SF-295) was 48.2 µM (inactive). The GI50 (SNB-78) was 51.8 µM (inactive), the GI50 (EKVX) was 28.8 µM (inactive) and the GI50 (K562) was 40.4 µM (inactive). For the same compound, the GI50 (HL-60) was 27.4 µM (inactive), the GI50 (NCI-H460) was 49.9 µM (inactive) and the GI50 (NCI-H23) was 36.6 µM (inactive). The GI50 (LOX IMVI) was 52.4 µM (inactive), the GI50 (HOP-92) was 22.1 µM (inactive) and the GI50 (COLO 205) was 45.1 µM (inactive). The GI50 (SK-MEL-28) was 29.6 µM (inactive), the GI50 (IGROV-1) was 61.7 µM (inactive) and the GI50 (SN12C) was 45.7 µM (inactive). The GI50 (Malme-3M) was 34.6 µM (inactive), the GI50 (XF498) was 12.5 µM (inactive) and the GI50 (OVCAR-8) was 41.2 µM (inactive). The GI50 (HCT-15) was 32.3 µM, the GI50 (MOLT-4) was 20.2 µM (inactive) and the GI50 (SK-OV-3) was > 100 µM (inactive). For the same compound, the GI50 (DLD-1) was 33.4 µM (inactive) and the GI50 (M14) was 40 µM (inactive).
In the case of `c1ccc(CSc2nc3ccccc3nc2-c2cccs2)cc1`, the GI50 (CCRF-CEM) is reported as 92.9 µM (inactive), the GI50 (SK-MEL-5) is reported as > 100 µM (inactive) and the GI50 (HCT-116) is reported as > 100 µM (inactive). For the same compound, the GI50 (LXFL 529) was > 100 µM (inactive), the GI50 (OVCAR-3) was > 100 µM (inactive) and the GI50 (UACC-257) was > 100 µM (inactive). The GI50 (SNB-75) was > 100 µM (inactive), the GI50 (OVCAR-5) was > 100 µM (inactive) and the GI50 (HT-29) was > 100 µM (inactive). For the same compound, the GI50 (M19-MEL) was > 100 µM (inactive), the GI50 (TK-10) was > 100 µM (inactive) and the GI50 (HOP-62) was > 100 µM (inactive). The GI50 (NCI-H522) was 41.3 µM (inactive), the GI50 (RPMI-8226) was > 100 µM (inactive) and the GI50 (ACHN) was > 100 µM (inactive). For the same compound, the GI50 (HCC 2998) was > 100 µM (inactive), the GI50 (SK-MEL-2) was > 100 µM (inactive) and the GI50 (A549) was > 100 µM (inactive). The GI50 (NCI-H226) was > 100 µM (inactive), the GI50 (U-251) was > 100 µM (inactive) and the GI50 (OVCAR-4) was > 100 µM (inactive). For the same compound, the GI50 (SNB-19) was > 100 µM (inactive), the GI50 (786-0) was > 100 µM (inactive) and the GI50 (DMS-114) was > 100 µM (inactive). The GI50 (HOP-18) was > 100 µM (inactive), the GI50 (UO-31) was > 100 µM (inactive) and the GI50 (DMS-273) was > 100 µM (inactive). For the same compound, the GI50 (SF-295) was > 100 µM (inactive), the GI50 (SNB-78) was > 100 µM (inactive) and the GI50 (EKVX) was > 100 µM (inactive). For the same compound, the GI50 (K562) was > 100 µM (inactive), the GI50 (SF-268) was > 100 µM (inactive) and the GI50 (HL-60) was > 100 µM (inactive). For the same compound, the GI50 (NCI-H460) was > 100 µM (inactive), the GI50 (NCI-H23) was > 100 µM (inactive) and the GI50 (KM12) was > 100 µM (inactive). For the same compound, the GI50 (HOP-92) was > 100 µM (inactive), the GI50 (COLO 205) was > 100 µM (inactive) and the GI50 (SK-MEL-28) was > 100 µM (inactive). For the same compound, the GI50 (IGROV-1) was > 100 µM (inactive), the GI50 (SN12C) was > 100 µM (inactive) and the GI50 (SF-539) was > 100 µM (inactive). For the same compound, the GI50 (Malme-3M) was > 100 µM (inactive), the GI50 (XF498) was > 100 µM (inactive) and the GI50 (OVCAR-8) was > 100 µM (inactive). The GI50 (HCT-15) was over 100 µM, the GI50 (MOLT-4) was > 100 µM (inactive) and the GI50 (SK-OV-3) was > 100 µM (inactive). For the same compound, the GI50 (DLD-1) was > 100 µM (inactive) and the GI50 (M14) was > 100 µM (inactive).
